“Also recorded” adds a separate entry of the source.
Test system: SSTR5
Assay: Spectral flow cytometry, SSTR5 positive cells, hPITOs
Type: cell-based, human
Conditions: hPITO, 48 h, FIGS. 9G
Description: 1.3 Generation and Culture of Human PitNET Tissue Organoids (hPITOs)
Patients undergoing planned transsphenoidal surgery for PitNETs were identified in the outpatient neuroendocrinology and neurosurgery clinics and collected by the St. Joseph's Hospital and Barrow Neurological Institute Biobank under the collection protocol PHXA-05TS038, and outcomes data protocol PHXA-0004-72-29 with approval of the Institutional Review Board (IRB) and patient consent. De-identified samples were shipped in collection and transport media (Table 3) to the Zavros laboratory (University of Arizona) for processing within 24 hours of collection. Resected PitNET tissues were washed with Dulbeccos Phosphate Buffered Saline (DPBS) supplemented with 1× Penicillin/Streptomycin, 1× Kanamycin and 1× Amphotericin/Gentamycin, minced into smaller pieces, and incubated with digestion buffer (Dulbecco's Modified Eagle Medium/Nutrient Mixture F-12 (DMEM/F12) supplemented with 0.4% Collagenase 2, 0.1% Hyaluronic Acid, 0.03% Trypsin). The tissue was incubated with Accutase (Thermo Fisher Scientific) for a further 5 minutes, and the cells were pelleted and washed with DPBS supplemented with antibiotics. Dissociated cells were then seeded as Matrigel™ domes in culture dishes and overlaid with growth media (Table 4). Media was replaced every 3 days and organoids were harvested for downstream experiments or passaged after 15 days of culture (FIG. 1B).
Sonic Hedgehog (SHH) was withdrawn from the organoid growth media 16 hours prior to treatment. […] The IC50 values used for each hPITO line for each drug were determined based on dose responses (FIG. 12). […]

Compound | magnitude of SSTR5 induction, relacorilant vs mifepristone | percentage of SSTR5 positive cells
Cn1cc(S(=O)(=O)N2CCC3=Cc4c(cnn4-c4ccc(F)cc4)C[C@]3(C(=O)c3cc(C(F)(F)F)ccn3)C2)cn1 [relacorilant, (R)-(1-(4-fluorophenyl)-6-((1-methyl-1H-pyrazol-4-yl)sulfonyl)-4,4a,5,6,7,8-hexahydro-1H-pyrazolo[3,4-g]isoquinolin-4a-yl) (4-(trifluoromethyl)pyridin-2-yl) methanone] | significantly greater than that of mifepristone | significant increase; also recorded: significantly upregulated
CC#C[C@]1(O)CC[C@H]2[C@@H]3CCC4=CC(=O)CCC4=C3[C@@H](c3ccc(N(C)C)cc3)C[C@@]21C [mifepristone, 11β-(4-dimethylaminophenyl)-17ß-hydroxy-17α-(1-propynyl)-estra-4,9-dien-3-one] | – | significant increase
